pIC50: −log10 of the molar value.
Columns and labels:
[1] = system: BT474 cells (HER2 expressing cells); experiment: CellTiter-Glo cell viability assay, BT474; assay type: cell-based; conditions: PBD compounds, 72 h incubation
Procedure: (§1) PBD compounds and conjugates thereof were evaluated for their antiproliferation properties in tumor cell lines in vitro using CellTiter-Glo® (Promega Corp). Cells were plated in black walled 96-well plate and allowed to adhere overnight at 37° C. in a humidified atmosphere of 5% CO2. BT474, SKBR3, NCI-N87 cells (HER2 expressing cells), JIMT1 cells (HER2 medium expression level cells) and MCF7 cells (HER2 low expressing levels cells) and were plated at a density of 5,000 cells per well. The next day the medium was replaced with 50 μL fresh medium and 50 μL of 2× stocks of PBD compounds or antibody-PBD conjugate were added to appropriate wells, mixed and incubated for 72 h. CellTiter-Glo® reagent was added to the wells at room temperature and the luminescent signal was measured after 10 min using a SpectraMax M5 plate reader (Molecular Devices). Dose response curves were generated using SoftMax Pro software. IC50 values were determined from four-parameter curve fitting.

[2] = system: SKBR3 cells (HER2 expressing cells); experiment: CellTiter-Glo cell viability assay, SKBR3; assay type: cell-based; conditions: PBD compounds, 72 h incubation
Procedure: as §1

[3] = system: NCI-N87 cells (HER2 expressing cells); experiment: CellTiter-Glo cell viability assay, NCI-N87; assay type: cell-based; conditions: PBD compounds, 72 h incubation
Procedure: as §1

[4] = system: JIMT1 cells (HER2 medium expression level cells); experiment: CellTiter-Glo cell viability assay, JIMT1; assay type: cell-based; conditions: PBD compounds, 72 h incubation
Procedure: as §1

[5] = system: MCF7 cells (HER2 low expressing levels cells); experiment: CellTiter-Glo cell viability assay, MCF7; assay type: cell-based; conditions: PBD compounds, 72 h incubation
Procedure: as §1

[6] = Phase I clinical evaluation; cited from earlier work

## C=C1C[C@H]2C=Nc3cc(OCCCC(=O)Nc4cn(C)c(C(=O)Nc5cc(C(=O)Nc6cc(C(=O)n7ncc8ccc(N)cc87)n(C)c6)n(C)c5)n4)c(OC)cc3C(=O)N2C1 [Compound 28, (S,Z)-N-(5-(5-(6-amino-1H-indazole-1-carbonyl)-1-methyl-1H-pyrrol-3-ylcarbamoyl)-1-methyl-1H-pyrrol-3-yl)-4-(4-(7-methoxy-2-methylene-5-oxo-2,3,5,11a-tetrahydro-1H-benzo[e]pyrrolo[1,2-a][1,4]diazepin-8-yloxy)butanamido)-1-methyl-1H-imidazole-2-carboxamide]
[1]; Homo sapiens, BT-474
  pIC50: 8.54
[2]; Homo sapiens, SK-BR-3
  pIC50: 9.80
[3]; Homo sapiens, NCI-N87
  pIC50: 8.99
[4]; Homo sapiens, JIMT-1
  pIC50: 9.22
[5]; Homo sapiens, MCF7
  pIC50: 8.59

## C=C1C[C@H]2C=Nc3cc(OCCCC(=O)Nc4cn(C)c(C(=O)Nc5cc(C(=O)Nc6cc(C(=O)O)n(C)c6)n(C)c5)n4)c(OC)cc3C(=O)N2C1 [Compound 51, (S,Z)-4-(4-(4-(4-(7-methoxy-2-methylene-5-oxo-2,3,5,11a-tetrahydro-1H-benzo[e]pyrrolo[1,2-a][1,4]diazepin-8-yloxy)butanamido)-1-methyl-1H-imidazole-2-carboxamido)-1-methyl-1H-pyrrole-2-carboxamido)-1-methyl-1H-pyrrole-2-carboxylic acid]
[1]; Homo sapiens, BT-474
  pIC50: 6.52
[2]; Homo sapiens, SK-BR-3
  pIC50: 6.59
[3]; Homo sapiens, NCI-N87
  pIC50: 6.52
[4]; Homo sapiens, JIMT-1
  pIC50: 6.52
[5]; Homo sapiens, MCF7
  pIC50: 6.52

## C=C1C[C@@H]2C=Nc3cc(OCCCC(=O)Nc4cc(C(=O)Nc5cc(C(=O)Nc6cc(C(=O)NCCCO)n(C)c6)n(C)c5)n(C)c4)c(OC)cc3C(=O)N2C1 [Compound 55, (R,Z)-N-(3-hydroxypropyl)-4-(4-(4-(4-(7-methoxy-2-methylene-5-oxo-2,3,5,11a-tetrahydro-1H-benzo[e]pyrrolo[1,2-a][1,4]diazepin-8-yloxy)butanamido)-1-methyl-1H-pyrrole-2-carboxamido)-1-methyl-1H-pyrrole-2-carboxamido)-1-methyl-1H-pyrrole-2-carboxamide]
[1]; Homo sapiens, BT-474
  pIC50: 8.12
[2]; Homo sapiens, SK-BR-3
  pIC50: 8.60
[3]; Homo sapiens, NCI-N87
  pIC50: 8.30
[4]; Homo sapiens, JIMT-1
  pIC50: 8.70
[5]; Homo sapiens, MCF7
  pIC50: 7.33

## COc1cc2c(cc1OCCCC(=O)Nc1cc(C(=O)Nc3cc(C(=O)Nc4cc(C(=O)NCCCO)n(C)c4)n(C)c3)n(C)c1)N=C[C@@H]1CCCN1C2=O [Compound 66, (S,Z)-N-(3-hydroxypropyl)-4-(4-(4-(4-(7-methoxy-5-oxo-2,3,5,11a-tetrahydro-1H-benzo[e]pyrrolo[1,2-a][1,4]diazepin-8-yloxy)butanamido)-1-methyl-1H-pyrrole-2-carboxamido)-1-methyl-1H-pyrrole-2-carboxamido)-1-methyl-1H-pyrrole-2-carboxamide]
[1]; Homo sapiens, BT-474
  pIC50: 7.07
[2]; Homo sapiens, SK-BR-3
  pIC50: 7.80
[3]; Homo sapiens, NCI-N87
  pIC50: 7.57
[4]; Homo sapiens, JIMT-1
  pIC50: 7.82
[5]; Homo sapiens, MCF7
  pIC50: 6.92

## COc1cc2c(cc1OCCCC(=O)Nc1cc(C(=O)Nc3cc(C(=O)Nc4cc(C(=O)NCCCO)n(C)c4)n(C)c3)n(C)c1)N=C[C@@H]1Cc3ccccc3N1C2=O [Compound 69]
[1]; Homo sapiens, BT-474
  pIC50: 8.33
[2]; Homo sapiens, SK-BR-3
  pIC50: 8.82
[3]; Homo sapiens, NCI-N87
  pIC50: 8.52
[4]; Homo sapiens, JIMT-1
  pIC50: 8.82
[5]; Homo sapiens, MCF7
  pIC50: 7.16

## C=C1C[C@H]2C=Nc3cc(OCCCC(=O)Nc4cn(C)c(C(=O)Nc5cc(C(=O)Nc6cc(C(=O)N7CCc8cc(N)ccc87)n(C)c6)n(C)c5)n4)c(OC)cc3C(=O)N2C1 [Compound 77, (S,Z)-N-(5-(5-(5-aminoindoline-1-carbonyl)-1-methyl-1H-pyrrol-3-ylcarbamoyl)-1-methyl-1H-pyrrol-3-yl)-4-(4-(7-methoxy-2-methylene-5-oxo-2,3,5,11a-tetrahydro-1H-benzo[e]pyrrolo[1,2-a][1,4]diazepin-8-yloxy)butanamido)-1-methyl-1H-imidazole-2-carboxamide]
[1]; Homo sapiens, BT-474
  pIC50: 7.43
[2]; Homo sapiens, SK-BR-3
  pIC50: 8.85
[3]; Homo sapiens, NCI-N87
  pIC50: 8.19
[4]; Homo sapiens, JIMT-1
  pIC50: 8.07
[5]; Homo sapiens, MCF7
  pIC50: 7.83

## COc1cc2c(cc1OCCCC(=O)Nc1cn(C)c(C(=O)Nc3cc(C(=O)Nc4cc(C(=O)n5ccc6cc(N)ccc65)n(C)c4)n(C)c3)n1)N=C[C@@H]1Cc3ccccc3N1C2=O [Compound 78, (S)-N-(5-((5-(5-amino-1H-indole-1-carbonyl)-1-methyl-1H-pyrrol-3-yl)carbamoyl)-1-methyl-1H-pyrrol-3-yl)-4-(4-((8-methoxy-6-oxo-12a,13-dihydro-6H-benzo[5,6][1,4]diazepino[1,2-a]indol-9-yl)oxy)butanamido)-1-methyl-1H-imidazole-2-carboxamide]
[1]; Homo sapiens, BT-474
  pIC50: 9.20
[2]; Homo sapiens, SK-BR-3
  pIC50: 10.22
[3]; Homo sapiens, NCI-N87
  pIC50: 9.54
[4]; Homo sapiens, JIMT-1
  pIC50: 8.96
[5]; Homo sapiens, MCF7
  pIC50: 8.72

## C=C1C[C@H]2C=Nc3cc(OCCCC(=O)Nc4cn(C)c(C(=O)Nc5cc(C(=O)Nc6cc(C(=O)n7ncc8cc(N)ccc87)n(C)c6)n(C)c5)n4)c(OC)cc3C(=O)N2C1 [Compound 79, (S,Z)-N-(5-(5-(5-amino-1H-indazole-1-carbonyl)-1-methyl-1H-pyrrol-3-ylcarbamoyl)-1-methyl-1H-pyrrol-3-yl)-4-(4-(7-methoxy-2-methylene-5-oxo-2,3,5,11a-tetrahydro-1H-benzo[e]pyrrolo[1,2-a][1,4]diazepin-8-yloxy)butanamido)-1-methyl-1H-imidazole-2-carboxamide]
[1]; Homo sapiens, BT-474
  pIC50: 9.18
[2]; Homo sapiens, SK-BR-3
  pIC50: 10.05
[3]; Homo sapiens, NCI-N87
  pIC50: 9.51
[4]; Homo sapiens, JIMT-1
  pIC50: 8.68
[5]; Homo sapiens, MCF7
  pIC50: 8.59

## C=C1C[C@H]2C=Nc3cc(OCCCC(=O)Nc4cn(C)c(C(=O)Nc5cc(C(=O)Nc6cc(C(=O)Nc7ccc8[nH]ccc8c7)n(C)c6)n(C)c5)n4)c(OC)cc3C(=O)N2C1 [Compound 82, (S,Z)-N-(5-(5-(1H-indol-5-ylcarbamoyl)-1-methyl-1H-pyrrol-3-ylcarbamoyl)-1-methyl-1H-pyrrol-3-yl)-4-(4-(7-methoxy-2-methylene-5-oxo-2,3,5,11a-tetrahydro-1H-benzo[e]pyrrolo[1,2-a][1,4]diazepin-8-yloxy)butanamido)-1-methyl-1H-imidazole-2-carboxamide]
[1]
  pIC50: 7.49
[2]
  pIC50: 8.44
[3]
  pIC50: 8.10
[4]
  pIC50: 7.97
[5]
  pIC50: 7.57

## C=C1C[C@H]2C=Nc3cc(OCCCC(=O)Nc4cn(C)c(C(=O)Nc5cc(C(=O)Nc6cc(C(=O)n7ccc8cc(CN)ccc87)n(C)c6)n(C)c5)n4)c(OC)cc3C(=O)N2C1 [Compound 83, (S,Z)-N-(5-(5-(5-(aminomethyl)-1H-indole-1-carbonyl)-1-methyl-1H-pyrrol-3-ylcarbamoyl)-1-methyl-1H-pyrrol-3-yl)-4-(4-(7-methoxy-2-methylene-5-oxo-2,3,5,11a-tetrahydro-1H-benzo[e]pyrrolo[1,2-a][1,4]diazepin-8-yloxy)butanamido)-1-methyl-1H-imidazole-2-carboxamide]
[1]; Homo sapiens, BT-474
  pIC50: 8.60
[2]; Homo sapiens, SK-BR-3
  pIC50: 9.74
[3]; Homo sapiens, NCI-N87
  pIC50: 9.09
[4]; Homo sapiens, JIMT-1
  pIC50: 8.92
[5]; Homo sapiens, MCF7
  pIC50: 8.62

## C=C1C[C@H]2C=Nc3cc(OCCCC(=O)Nc4cn(C)c(C(=O)Nc5cc(C(=O)Nc6cnc7[nH]ccc7c6)n(C)c5)n4)c(OC)cc3C(=O)N2C1 [Compound 84, (S,Z)-N-(5-(1H-pyrrolo[2,3-b]pyridin-5-ylcarbamoyl)-1-methyl-1H-pyrrol-3-yl)-4-(4-(7-methoxy-2-methylene-5-oxo-2,3,5,11a-tetrahydro-1H-benzo[e]pyrrolo[1,2-a][1,4]diazepin-8-yloxy)butanamido)-1-methyl-1H-imidazole-2-carboxamide]
[1]; Homo sapiens, BT-474
  pIC50: 8.27
[2]; Homo sapiens, SK-BR-3
  pIC50: 9.18
[3]; Homo sapiens, NCI-N87
  pIC50: 8.82
[4]; Homo sapiens, JIMT-1
  pIC50: 8.44
[5]; Homo sapiens, MCF7
  pIC50: 8.42

## C=C1C[C@H]2C=Nc3cc(OCCCC(=O)Nc4cn(C)c(C(=O)Nc5cc(C(=O)Nc6cc(C(=O)n7ccc8cc(C(=O)OC)cnc87)n(C)c6)n(C)c5)n4)c(OC)cc3C(=O)N2C1 [Compound 85, (S,Z)-methyl 1-(4-(4-(4-(4-(7-methoxy-2-methylene-5-oxo-2,3,5,11a-tetrahydro-1H-benzo[e]pyrrolo[1,2-a][1,4]diazepin-8-yloxy)butanamido)-1-methyl-1H-imidazole-2-carboxamido)-1-methyl-1H-pyrrole-2-carboxamido)-1-methyl-1H-pyrrole-2-carbonyl)-1H-pyrrolo[2,3-b]pyridine-5-carboxylate]
[1]; Homo sapiens, BT-474
  pIC50: 8.20
[2]; Homo sapiens, SK-BR-3
  pIC50: 9.24
[3]; Homo sapiens, NCI-N87
  pIC50: 9.01
[4]; Homo sapiens, JIMT-1
  pIC50: 7.85
[5]; Homo sapiens, MCF7
  pIC50: 8.10

## C=C1C[C@H]2C=Nc3cc(OCCCOc4cc5c(cc4OC)C(=O)N4CC(=C)C[C@H]4C=N5)c(OC)cc3C(=O)N2C1 [SJG-136]
[6]
  adverse effects noted: vascular leak syndrome, peripheral edema, liver toxicity and fatigue
  maximum tolerated dose: 45 μg/m^2

Reference: patent US10143695B2 (priority 2016, dated 2018)
